This is an account of results in patent publication US6653340B1, “Compounds useful in the complement, coagulat and kallikrein pathways and method for their preparation” (BioCryst Pharmaceuticals, Inc., priority 1997, dated 2003).

Where two headings read alike, the source gives them in different places.

Test [1] addresses T1, C1s (Homo sapiens, UniProt P09871).
T1 sequence (P09871 16-688): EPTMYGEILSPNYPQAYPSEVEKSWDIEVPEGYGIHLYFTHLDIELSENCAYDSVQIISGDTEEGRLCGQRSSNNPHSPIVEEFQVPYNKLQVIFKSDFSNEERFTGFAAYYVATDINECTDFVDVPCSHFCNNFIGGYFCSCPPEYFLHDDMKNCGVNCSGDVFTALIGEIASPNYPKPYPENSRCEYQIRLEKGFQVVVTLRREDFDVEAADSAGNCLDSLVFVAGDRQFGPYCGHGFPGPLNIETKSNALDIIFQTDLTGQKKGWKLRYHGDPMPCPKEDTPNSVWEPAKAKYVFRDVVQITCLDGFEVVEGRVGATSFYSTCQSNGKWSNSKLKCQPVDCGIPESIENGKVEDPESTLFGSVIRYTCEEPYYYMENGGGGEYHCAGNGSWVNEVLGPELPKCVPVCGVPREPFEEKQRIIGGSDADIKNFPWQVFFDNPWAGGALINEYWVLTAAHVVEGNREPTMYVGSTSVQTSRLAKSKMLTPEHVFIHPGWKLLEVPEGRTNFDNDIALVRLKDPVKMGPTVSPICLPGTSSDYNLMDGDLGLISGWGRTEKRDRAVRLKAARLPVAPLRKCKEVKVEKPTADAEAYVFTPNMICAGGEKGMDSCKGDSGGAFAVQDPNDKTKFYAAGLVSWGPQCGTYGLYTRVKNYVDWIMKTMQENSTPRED
In words: C1s esterolytic inhibition assay (Z-Lys-SBzl substrate). It is filed as biochemical. The conditions noted are these: Z-Lys-SBzl 1.29 mM, C1s 3 to 13 nM; read-out: Cls (Serine Protease Inhibitory Data, IC50). On the procedure:
(§1) The compounds to be tested were dissolved in a stock solution of DMSO at 10.0 or 100 mM. A portion of this stock solution was added to assay buffer in a final volume of 100 μL containing the enzyme of interest. Controls included buffer alone and enzyme solutions to which DMSO was added. Substrate was added to the reaction wells immediately or after incubation at room temperature. The reaction rates were measured spectrophotometrically by the generation of product at 405 nm for 200 sec. Background absorbance at 690 nm was measured and subtracted from the absorbance at 405 nm for each well.
(§2) The reaction rate for enzyme alone was compared to the rate of enzyme in the presence of inhibitor and the percent inhibition was calculated as shown below:
(§3) Percent Inhibition=[Rate without inhibitor−Rate with inhibitor)/(Rate without inhibitor)]×100
(§4) Compounds in the examples were tested a minimum of three times.
C1s esterolytic activity was assayed using a modification of the technique originally described by Kam using Z-Lys-SBzl, 1.29 mM as substrate and C1s at 3 to 13 nM.

For test [2], the target named is Thrombin (Homo sapiens, UniProt P00734). In words: Thrombin inhibition assay (N-Benzoyl-Phe-Val-Arg-p-nitroanilide substrate). It is filed as biochemical. The following applies: thrombin 12.5 U/ml, pH 7.5; read-out: Thrombin (Serine Protease Inhibitory Data, IC50). On the procedure:
as §1, §2, §3, §4
(§5) Thrombin was assayed at 12.5 U/ml using 0.37 mM N-Benzoyl-Phe-Val-Arg-p-nitroanilide (Svendsen, L.; Blomback B.; Blomback, M.; Olsson, P. I. Substrate for determination of trypsin, thrombin and thrombin-like enzymes. Folia Haematol. 1972, 98, 446-454.) as the substrate in 100 mM HEPES, 10 mM CaCl2, 10% DMSO, pH 7.5. Factor Xa, 0.5 U/mL, was assayed in 50 mM HEPES, 150 mM NaCl, 10 mM CaCl2, pH 8.0 using Chromozyme X, 0.17 mM, as the substrate. Plasmin (0.004 units/mL), factor XIIa ([…]) and kallikrein (0.02 units/mL were assayed using modifications of the techniques originally described by McRae, et al. (Biochemistry. 1981, 20, 7196-7206). The assays were run in 200 mM triethanolamine, pH 7.8 and 100 mM Tris-HCl, 100 mM EDTA, […] using Z-Lys-SBzl, 0.13 mM and […], 0.16 mM, as substrates, respectively.

The target of test [3] is Factor Xa (Homo sapiens, UniProt P00742). Briefly: Factor Xa inhibition assay (Chromozyme X substrate). It is filed as biochemical. The following applies: Factor Xa 0.5 U/mL, pH 8.0; read-out: Xa (Serine Protease Inhibitory Data, IC50). Here is the method:
as §1, §2, §3, §4, §5

The target of test [4] is kallikrein (Homo sapiens, UniProt P03952). Briefly: Kallikrein inhibition assay (thioester substrate). It is filed as biochemical. The following applies: kallikrein 0.02 units/mL; read-out: Kallikrein (Serine Protease Inhibitory Data, IC50). On the procedure: as §1, §2, §3, §4, §5
Test [5] deals with T2, factor XIIa (Homo sapiens, UniProt P00748).
T2 sequence (P00748 373-615 limits assumed): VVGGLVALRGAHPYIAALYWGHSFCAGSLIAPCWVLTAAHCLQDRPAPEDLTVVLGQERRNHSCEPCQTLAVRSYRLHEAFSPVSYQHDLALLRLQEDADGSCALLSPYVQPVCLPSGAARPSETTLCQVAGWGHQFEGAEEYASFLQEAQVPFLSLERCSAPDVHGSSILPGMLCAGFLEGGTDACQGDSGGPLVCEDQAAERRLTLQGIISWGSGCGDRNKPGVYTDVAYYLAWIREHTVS
Briefly: Factor XIIa inhibition assay (thioester substrate). It is filed as biochemical. The conditions noted are these: read-out: XIIa (Serine Protease Inhibitory Data, IC50). Here is the method: as §1, §2, §3, §4, §5

The target of test [6] is Plasmin (Homo sapiens, UniProt P00747). Briefly: Plasmin inhibition assay (thioester substrate). It is filed as biochemical. The conditions noted are these: plasmin 0.004 units/mL; read-out: Plasmin (Serine Protease Inhibitory Data, IC50). On the procedure:
as §1, §2, §3, §4, §5

Test [7] deals with T3, Factor D (Homo sapiens, UniProt P00746). In words: Factor D esterolytic inhibition assay (Z-Lys-SBzl substrate). Details: Factor D was purified from the urine of a patient with Fanconi syndrome by ion exchange chromatography; from tissue; host or cells: urine of a patient with Fanconi syndrome. It is filed as biochemical. The conditions noted are these: Z-Lys-SBzl 1.29 mM, pH 7.5, 10% DMSO; read-out: Factor D (Serine Protease Inhibitory Data, IC50).
Excerpt: A modification of the procedure of Volanakis (Volankis, J. E.; Barnum, S. R.; Kilpatrick, J. M. Purification and properties of human factor D. Methods in Enzymol. 1993, 223, 82-97) for purification of Factor D was utilized as described by Yamauchi (Yamauchi, Y.; Stevens, J. W.; Macon, K. J.; Volanakis, J. E. Recombinant and native zymogen forms of human complement factor D. J. Immunol. 1994, 152, 3645-3653. Briefly, Factor D was purified from the urine of a patient with Fanconi syndrome by ion exchange chromatography using BioRex 70 and two rounds of ion-exchange chromatography in a Pharmacia FPLC system using a HR5/5 Mono S column.
as §1, §2, §3, §4
An established esterolytic assay for the measurement of Factor D activity and inhibition of Factor D activity was used (Kam, C. M.; McRae, B. J.; Harper, J. W.; Niemann, M. A.; Volanakis, J. E.; Powers, J. C. Human complement proteins D, C2, and B Active site mapping with peptide thioester substrates. J Biol. Chem. 1987, 262, 3444-3451). […] Hydrolysis of this compound by Factor D liberated a free sulfhydryl group which is then reacted with 5,5′-dithiobis(2nitrobenzoic acid) producing an intense yellow color (Habeeb, A. F. S. A. Reaction of protein sulfhydryl groups with Ellman's Reagent. Methods in Enzymol. 1976, 25, 457-464.). The assays were performed in 96 well microtiter plates and rates of hydrolysis were monitored at 405 nm in a Anthos Labtec HT2 plate reader. Hydrolysis rates were reported as change in mOD/min. The assay was conducted in 100 mM HEPES, 500 mM NaCl, pH 7.5 containing 10% DMSO in a final volume of 200 μL per well.

The target in test [8] is Factor B (Homo sapiens, UniProt P00751). The conditions noted are these: Ikari, N. et al. Immunology 49: 685-691, 1983; cited from earlier work.
For test [9], the target named is T3, Factor D. The following applies: Inagi, R et al, Nephron 66: 285-290, 1994; cited from earlier work.

Sequence of Plasmin (P00747 581-810 limits assumed, species assumed): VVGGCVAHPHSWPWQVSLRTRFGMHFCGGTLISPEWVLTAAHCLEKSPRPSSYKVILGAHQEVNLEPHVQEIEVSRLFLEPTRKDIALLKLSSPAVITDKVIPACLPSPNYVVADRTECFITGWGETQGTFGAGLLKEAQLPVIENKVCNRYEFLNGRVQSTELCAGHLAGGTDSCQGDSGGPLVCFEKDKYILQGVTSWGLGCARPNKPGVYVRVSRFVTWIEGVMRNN
Sequence of Plasmin (P00747 97-580 partner limits assumed, species assumed): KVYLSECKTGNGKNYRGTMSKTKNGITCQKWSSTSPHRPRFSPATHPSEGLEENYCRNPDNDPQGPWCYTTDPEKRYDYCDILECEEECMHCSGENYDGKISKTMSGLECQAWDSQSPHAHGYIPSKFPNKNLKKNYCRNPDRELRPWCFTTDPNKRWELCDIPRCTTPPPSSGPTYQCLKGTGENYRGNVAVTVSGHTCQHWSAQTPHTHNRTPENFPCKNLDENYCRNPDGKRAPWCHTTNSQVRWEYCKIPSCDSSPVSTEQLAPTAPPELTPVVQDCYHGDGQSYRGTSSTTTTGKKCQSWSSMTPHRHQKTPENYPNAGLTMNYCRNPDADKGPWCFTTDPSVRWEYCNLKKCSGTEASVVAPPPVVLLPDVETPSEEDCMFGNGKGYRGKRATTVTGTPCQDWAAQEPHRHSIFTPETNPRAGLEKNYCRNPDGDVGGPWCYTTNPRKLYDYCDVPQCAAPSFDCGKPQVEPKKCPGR
Sequence of Factor Xa (P00742 235-488 limits assumed): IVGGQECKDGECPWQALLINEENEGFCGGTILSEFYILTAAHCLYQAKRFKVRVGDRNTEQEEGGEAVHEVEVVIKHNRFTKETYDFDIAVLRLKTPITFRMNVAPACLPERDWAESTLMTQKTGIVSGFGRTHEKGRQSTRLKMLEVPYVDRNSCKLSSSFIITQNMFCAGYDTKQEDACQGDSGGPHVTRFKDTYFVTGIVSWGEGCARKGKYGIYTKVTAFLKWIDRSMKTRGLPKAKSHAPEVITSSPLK
Sequence of Factor Xa (P00742 41-179 partner limits assumed): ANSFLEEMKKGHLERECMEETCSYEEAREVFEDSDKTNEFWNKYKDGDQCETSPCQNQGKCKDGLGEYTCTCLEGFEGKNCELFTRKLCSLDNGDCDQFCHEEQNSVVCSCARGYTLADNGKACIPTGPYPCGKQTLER
Sequence of kallikrein (P03952 whole entry): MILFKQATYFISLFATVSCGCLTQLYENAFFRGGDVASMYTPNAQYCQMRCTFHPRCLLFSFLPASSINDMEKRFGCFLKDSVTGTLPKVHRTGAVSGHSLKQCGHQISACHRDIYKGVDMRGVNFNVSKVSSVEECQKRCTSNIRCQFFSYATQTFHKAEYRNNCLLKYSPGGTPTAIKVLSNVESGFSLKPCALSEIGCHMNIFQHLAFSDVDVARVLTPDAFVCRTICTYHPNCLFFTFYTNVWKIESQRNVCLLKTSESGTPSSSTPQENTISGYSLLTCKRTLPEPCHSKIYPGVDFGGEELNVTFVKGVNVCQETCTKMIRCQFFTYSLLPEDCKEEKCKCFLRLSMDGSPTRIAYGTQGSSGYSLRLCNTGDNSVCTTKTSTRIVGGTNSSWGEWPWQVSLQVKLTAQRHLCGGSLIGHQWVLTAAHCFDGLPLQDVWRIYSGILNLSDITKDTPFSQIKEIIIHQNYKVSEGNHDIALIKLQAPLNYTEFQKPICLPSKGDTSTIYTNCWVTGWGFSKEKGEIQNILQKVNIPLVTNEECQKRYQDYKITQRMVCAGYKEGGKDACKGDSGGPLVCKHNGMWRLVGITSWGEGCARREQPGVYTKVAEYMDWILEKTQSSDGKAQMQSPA
T3 sequence (P00746 26-253): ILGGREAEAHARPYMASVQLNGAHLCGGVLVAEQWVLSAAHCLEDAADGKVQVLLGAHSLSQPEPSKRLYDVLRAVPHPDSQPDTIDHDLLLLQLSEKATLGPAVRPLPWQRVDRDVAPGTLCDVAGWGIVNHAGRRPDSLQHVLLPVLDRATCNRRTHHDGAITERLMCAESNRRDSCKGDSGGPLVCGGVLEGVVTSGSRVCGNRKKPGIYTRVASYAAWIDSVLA
Sequence of Factor B (P00751 26-764): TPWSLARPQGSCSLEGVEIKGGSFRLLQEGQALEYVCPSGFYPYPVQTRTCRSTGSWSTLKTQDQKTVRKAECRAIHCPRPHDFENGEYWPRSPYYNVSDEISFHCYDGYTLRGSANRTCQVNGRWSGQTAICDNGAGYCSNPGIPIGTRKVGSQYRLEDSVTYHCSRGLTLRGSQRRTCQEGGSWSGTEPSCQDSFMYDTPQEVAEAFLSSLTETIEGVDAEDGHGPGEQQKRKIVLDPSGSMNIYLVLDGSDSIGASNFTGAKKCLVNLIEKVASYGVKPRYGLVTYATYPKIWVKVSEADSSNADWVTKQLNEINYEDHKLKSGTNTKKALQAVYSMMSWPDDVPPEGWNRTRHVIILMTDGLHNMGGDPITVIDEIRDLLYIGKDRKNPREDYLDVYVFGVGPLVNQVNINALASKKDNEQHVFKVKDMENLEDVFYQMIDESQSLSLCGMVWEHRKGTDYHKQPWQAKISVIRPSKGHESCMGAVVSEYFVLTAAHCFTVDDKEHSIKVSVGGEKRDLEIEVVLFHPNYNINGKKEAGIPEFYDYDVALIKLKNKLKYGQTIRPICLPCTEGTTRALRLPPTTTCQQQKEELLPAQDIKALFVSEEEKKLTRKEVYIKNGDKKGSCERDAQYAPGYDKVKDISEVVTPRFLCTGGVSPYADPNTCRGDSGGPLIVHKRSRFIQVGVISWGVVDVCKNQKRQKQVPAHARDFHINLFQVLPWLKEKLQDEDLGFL

As to `N=C(N)c1nc2ccc(OC(=O)c3cccs3)cc2s1` [Example 14], the IC50 (usually the concentration at which inhibition is half-maximal) in test [1] was found to be 2 nM; in test [2], 18 nM; in test [3], 12 nM; in test [4] it was 2 nM; in test [5], 5 nM; in test [6], 6 nM. Besides, the half-inhibitory concentration (IC50) in [7] came out at 250 nM.

Consider `N=C(N)c1nc2ccc(OC(=O)c3ccoc3)cc2s1` [Example 15], for which the IC50 was found to be 2 nM in test [1]; 15 nM in [2]; 22 nM in test [3]; 5 nM in test [4]; 6 nM in [5]; 15 nM in test [6]. Moreover, in test [7], the IC50 amounted to 286 nM.

On to `N=C(N)c1nc2ccc(OC(=O)c3ccsc3)cc2s1` [Example 16], for which the IC50 in test [1] came out at 2.5 nM; in [2] it was 42 nM; in test [3], 31 nM; in test [4], 2.6 nM; in [5], 10 nM; in [6], 21 nM. Moreover, in test [7], the IC50 worked out at 205 nM.

Take `N=C(N)C1=Cc2ccc(OC(=O)c3ccco3)cc2OC1` [Example 18, 3-amidino-7-(2H-1-benzopyran) 2-furancarboxylate methanesulfonate]: the IC50 was 2.9 nM in test [1]; 51 nM in test [2]; 3.9 nM in test [3]; 3.6 nM in test [4]; 6.1 nM in [5]; 1.5 nM in [6]. Besides, the IC50 in test [7] is 347 nM.

For the compound `CC/C=C/C(=O)Oc1ccc2cc(C(=N)N)sc2c1` [Example 20], the IC50 in [1] came out at 6 nM; in test [2], 47 nM; in test [3], 5 nM; in test [4], 12 nM; in test [5], 27 nM; in [6] it was 6 nM. In addition, the IC50 in test [7] was 190 nM.

As for `N=C(N)c1ccc2cc(OC(=O)c3ccc(N=C(N)N)cc3)ccc2c1` [nafamostat, 6′-amidino-2-naphthyl-p-guanidinobenzoate, reference compound], the IC50 was 22 nM in test [1]; 678 nM in test [2]; 1010 nM in test [3]; 12 nM in [4]; 114 nM in [5]; 60000 nM in [8]. For the same compound, the IC50 was 25000 nM in test [9] and 11000 nM in test [7].
